Data published in BindingDB's records for doi:10.1021/jm9807003 (National Institute of Diabetes, 1999).

Assay: Ability to inhibit GTP-gamma-S binding to Opioid receptor delta 1 of guinea pig caudate

`COc1ccc2c(c1O)[C@]13CCN(CC4CC4)[C@H](C2)[C@@H]1Cc1c([nH]c2ccccc12)C3` [17-cyclopropylmethyl-6,7-didehydro-4-hydroxy-3-methoxy-6,7:2',3'-indolmorphinan] gave a Ki of 22 nM.
